Laboratory results published in patent US11395815B2, “Compound for treating osteoarthritis” (Ascentage Pharma (Suzhou) Co., Ltd., priority 2018, dated 2022).

Columns and labels:
[1] = test system: mouse ACLT model; test: Pathological evaluation of mouse joints (safranin O staining) in ACLT model; type: in vivo; details: intra-articular, joints taken 13 days after first dosing, safranin O sections
Description: C57BL/6 mice aged 10 weeks were used for the study (n=12 for each group). Anterior cruciate ligament transection (ACLT) model was used to simulate the pathological condition in OA. To conduct ACLT surgery, the joint capsule of the right rear limb of mice was opened, and the anterior cruciate ligament (ACL) was transected with micro-scissors under a surgical microscope. After irrigation with saline to remove tissue debris, the skin incision was closed. Blank vehicle contained 5% Pluronic F68 (BASF, Germany) in 10 mM phosphate buffered saline (PBS, NaH2PH4/Na2HPO4) with pH adjusted to 7.4. Before each injection and sacrificing at the end point, the function of the limbs was assessed by a weight bearing test. All the mice were sacrificed for pathological evaluation and immunohistochemical staining 13 days after first dosing. Mouse joints were fixed in 4% paraformaldehyde overnight, dehydrated in increasing concentrations of ethanol and embedded in paraffin. Sections (5 μm) were cut from the paraffin blocks and applied to glass slides. The sections were stained for proteoglycans with aqueous safranin O (0.1%) for 5 min, and the specimens were then mounted.

[2] = test system: mouse ACLT model; test: Weight bearing test in mouse osteoarthritis (ACLT) model; type: in vivo; details: for weight bearing % (weight on operated limb versus contralateral unoperated limb): 13 days after first dose
Description: C57BL/6 mice aged 10 weeks were used for the study (n=12 for each group). Anterior cruciate ligament transection (ACLT) model was used to simulate the pathological condition in OA. To conduct ACLT surgery, the joint capsule of the right rear limb of mice was opened, and the anterior cruciate ligament (ACL) was transected with micro-scissors under a surgical microscope. After irrigation with saline to remove tissue debris, the skin incision was closed. Blank vehicle contained 5% Pluronic F68 (BASF, Germany) in 10 mM phosphate buffered saline (PBS, NaH2PH4/Na2HPO4) with pH adjusted to 7.4. Before each injection and sacrificing at the end point, the function of the limbs was assessed by a weight bearing test. All the mice were sacrificed for pathological evaluation and immunohistochemical staining 13 days after first dosing. Weight bearing test was conducted using a […] model 600MR (IITC Life Science, CA, USA). Briefly, after calibration of the equipment, mice were placed inside the chamber to stand with each hind paw on a scale, allowed to stand for 5-10 s until the readings were stable. The readings reflected the weight that was placed on each hind limb. The ACLT surgery caused osteoarthritis (OA) and decreased the weight placed on the hind limb. The results were expressed as the percentage of the weight placed on the operated limb versus the contralateral unoperated limb (weight bearing %). The value of weight bearing % is expected to be 100 in healthy mice, indicating the same weight placed on both limbs. The value of weight bearing % will decrease to 50˜60 after ACLT surgery due to less weight that could be placed on the operated limb than the unoperated limb. Alleviation of joint pain by […] should be reflected by an increased value of weight bearing %.

For CCN1[C@@H](C(=O)NC23CCC(C(=O)O)(CC2)CC3)[C@H](c2cccc(Cl)c2F)[C@]2(C(=O)Nc3cc(Cl)ccc32)C12CCCCC2 [compound A], the cartilage development [1] was “increased cartilage development”, the “pathological changes (articular cartilage erosion, proteoglycan loss, thinning and calcification of articular cartilage)” value [1] was “attenuated” and the “weight bearing % (weight on operated limb versus contralateral unoperated limb)” value (“weight bearing %” below) ([2]; 0.01 μmol (1 mM, 10 uL) intra-articular, compared with untreated control (P<0.05) and vehicle control (P<0.0001)) was “significantly increased value of weight bearing %”. The “weight bearing %” value ([2]; 0.05 μmol (5 mM, 10 uL) intra-articular, P<0.05 vs 1 mM compound A group) was “further increase in the value of weight bearing %”, the “weight bearing %” value ([2]; C57BL/6 mice, ACLT, intra-articular injection, across doses 0.01 and 0.05 μmol) was “dose-dependent effect in improving weight bearing %” and the joint pain ([2]; mouse ACLT model, intra-articular injection) was “significantly relieved the joint pain”.
